Measured values as given in US20130225539A1, “METHOD FOR PRODUCING CRYSTALLINE 5-AMINOSALICYLIC ACID” (Pharmazell GMBH, priority 2010, published 2013).
Like-named read-outs stand apart in the source and are kept apart here.

Columns and labels:
Format in all cases: physicochemical
[1] = Bulk density (USP 616, Method 1); conditions: crystalline powder
Protocol: (§1) The bulk density and tapped density are measured by methods known to the skilled person, such as those described in the USP (“United States Pharmacopeia”) monograph, e.g., USP 27, Vol. 1, pp. 226 to 227, May 1, 2009-Apr. 30, 2010, Bulk Density 616, Method 1, Tapped Density 616, Method 2. The measurement of the grain size distribution is effected according to the protocols of European Pharmacopeia, Supplement 6.6, Chapter 2.9.31 “Particle Size Analysis by Laser Light Diffraction” pp. 5103-5107.

[2] = Tapped density (USP 616, Method 2); conditions: crystalline powder
Protocol: as §1

[3] = Grain size distribution by laser light diffraction (Ph. Eur. 2.9.31)
Protocol: as §1
(§2) The crystals are described by their particle size distribution as observed by laser diffraction, their optical micrograph image and their aspect ratio which can be determined, for example, by means of image analysis using the Malvern Symex FPIA 3000.

[4] = Crystal shape by image analysis (Malvern Sysmex FPIA 3000): aspect ratio, circularity; conditions: for Aspect ratio (width/length; w/l): main fraction of the crystals
From the text: as §2
The aspect ratio (width/length; w/l) is expressed by a proportion. In the case of the 5-ASA according to the invention having a particularly high bulk density, the main fraction of the crystals has an aspect ratio around 0.5. From this, a width to length ratio of w/l of 1:2 can be calculated. In the 5-ASA having a high bulk density according to the invention, the aspect ratio is around 0.36, thus corresponding to a width to length ratio of 1:3. The different aspect ratios of the 5-ASA crystal fractions according to the invention having high and particularly high bulk densities bring about the different bulk and tapped densities and the differently broad grain size distributions seen in the laser diffractograms according to FIG. 10 and FIG. 11.
The measured value of circularity describes the deviation of the crystal shape from ideal spherical shape. A value of 1 corresponds to an ideal sphere.

[5] = listed as 5-ASA coarse crystals

Nc1ccc(O)c(C(=O)O)c1 [5-ASA coarse acicular crystals, 5-aminosalicylic acid]
Bulk density [1]: 250 to 270 g/L | Bulk density [1, 5]: 250 to 270 g/L | Tapped density [2]: 450 to 480 g/L | Tapped density [2, 5]: 450 to 480 g/L | Grain size distribution X(10) [3]: X (10) = 10-15 μm | Grain size distribution X(50) [3]: X (50) = 50-60 μm | Grain size distribution X(90) [3]: X (90) = 200-220 μm | Grain size distribution X(10) [3, 5]: X(10) = 10-15 μm | Grain size distribution X(50) [3, 5]: 50-60 μm | Grain size distribution X(90) [3, 5]: 200-220 μm

Nc1ccc(O)c(C(=O)O)c1 [Example 2, 5-aminosalicylic acid]
Bulk density [1]: 300 to 400 g/L | Tapped density [2]: 510 to 700 g/L | Grain size distribution X(10) [3]: X(10) = 3-5 μm | Grain size distribution X(50) [3]: 15-45 μm | Grain size distribution X(90) [3]: 90-100 μm | Aspect ratio (width/length; w/l) ([4]; listed as 5-ASA having a high bulk density according to the invention): around 0.36

Nc1ccc(O)c(C(=O)O)c1 [Example 1, 5-aminosalicylic acid]
Bulk density [1]: 400 to 500 g/L | Tapped density [2]: 600 to 800 g/L | Grain size distribution X(10) [3]: X(10) = 7-10 μm | Grain size distribution X(50) [3]: 25-35 μm | Grain size distribution X(90) [3]: 80-90 μm | Circularity ([4]; 1 = ideal sphere): ~0.8 | Aspect ratio (width/length; w/l) ([4]; listed as 5-ASA according to the invention having a particularly high bulk density): around 0.5

Nc1ccc(O)c(C(=O)O)c1 [5-ASA fine acicular crystals, 5-aminosalicylic acid]
Bulk density [1]: 150 to 190 g/L | Bulk density ([1]; listed as 5-ASA fine crystals): 150 to 190 g/L | Tapped density [2]: 300 to 390 g/L | Tapped density ([2]; listed as 5-ASA fine crystals): 300 to 390 g/L | Grain size distribution X(10) [3]: X (10) = 2-6 μm | Grain size distribution X(50) [3]: X (50) = 8-20 μm | Grain size distribution X(90) [3]: X (90) = 25-50 μm | Grain size distribution X(10) ([3]; listed as 5-ASA fine crystals): X(10) = 2-6 μm | Grain size distribution X(50) ([3]; listed as 5-ASA fine crystals): 8-20 μm | Grain size distribution X(90) ([3]; listed as 5-ASA fine crystals): 25-50 μm
